Laboratory results: ChEMBL document CHEMBL5505979, “Novel aminothiazoximone-corbelled ethoxycarbonylpyrimidones with antibiofilm activity to conquer Gram-negative bacteria through potential multitargeting effects” (Eur J Med Chem, 2024)
Converted amounts (≈) assume the structure as drawn. The source made the active and inactive calls. No cut-off for these calls is given here.

Key:
Staphylococcus aureus [1] = assay: Anti-bacterial activity against methicillin-resistant Staphylococcus aureus ATCC 43300 assessed as inhibition of bacterial growth; assay type: functional; conditions: Staphylococcus aureus, ATCC 43300; read-out: MIC
Klebsiella pneumoniae = assay: Anti-bacterial activity against Klebsiella pneumoniae KPN325 assessed as inhibition of bacterial growth; assay type: functional; conditions: Klebsiella pneumoniae, KPN325; read-out: MIC
Pseudomonas aeruginosa [2] = assay: Anti-bacterial activity against Pseudomonas aeruginosa CMCC (B) 10104 assessed as inhibition of bacterial growth; assay type: functional; conditions: Pseudomonas aeruginosa, CMCC (B) 10104; read-out: MIC
Escherichia coli [3] = assay: Drug resistance, ratio of MIC for Escherichia coli ATCC 25922 after 20 passages exposure to MIC for Escherichia coli ATCC 25922 after first exposure; assay type: functional
Escherichia coli [4] = assay: (§1) Anti-bacterial activity against Escherichia coli ATCC 25922 assessed as fractional inhibitory concentration measured upto 9 hrs in presence of ethyl(E)-6-((4-(2-(2-aminothiazol-4-yl)-2-(methoxyimino)acetyl)piperazin-1-yl)methyl)-4-(2-butyl-4-chloro-1H-imidazole-5-yl)-2-oxo-1,2,3,4-tetrahydropyrimidine-5-carboxylate; assay type: functional
Staphylococcus aureus [5] = assay: Anti-bacterial activity against methicillin-resistant Staphylococcus aureus N315 assessed as inhibition of bacterial growth; assay type: functional; conditions: Staphylococcus aureus, N315; read-out: MIC
Staphylococcus aureus [6] = assay: Anti-bacterial activity against Staphylococcus aureus ATCC 29213 assessed as inhibition of bacterial growth; assay type: functional; conditions: Staphylococcus aureus, ATCC 29213; read-out: MIC
Escherichia coli [7] = assay: Anti-bacterial activity against Escherichia coli ATCC 25922 assessed as growth inhibition by measuring optical density measured at 1/2 times of MIC of norfloxacin by Checkerboard assay (reference value: 0.129); assay type: functional
Staphylococcus aureus [8] = assay: Anti-bacterial activity against Staphylococcus aureus CMCC (B) 26001 assessed as inhibition of bacterial growth; assay type: functional
Pseudomonas aeruginosa [9] = assay: Anti-bacterial activity against Pseudomonas aeruginosa ST235 assessed as inhibition of bacterial growth; assay type: functional; conditions: Pseudomonas aeruginosa, ST235; read-out: MIC
Acinetobacter baumannii [10] = assay: Anti-bacterial activity against Acinetobacter baumannii assessed as growth inhibition by measuring optical density measured at 2 time of MIC (reference value: 0.156); assay type: functional
Acinetobacter baumannii [11] = assay: Anti-bacterial activity against Acinetobacter baumannii assessed as growth inhibition by measuring optical density measured at 1/2 time of MIC (reference value: 0.156); assay type: functional
Acinetobacter baumannii [12] = assay: Drug resistance, ratio of MIC for Acinetobacter baumannii after 20 passages exposure to MIC for Acinetobacter baumannii after first exposure; assay type: functional
Escherichia coli [13] = assay: Anti-bacterial activity against Escherichia coli ATCC 25922 assessed as growth inhibition by measuring optical density measured at 2 times of MIC of norfloxacin by Checkerboard assay (reference value: 0.129); assay type: functional
Staphylococcus aureus [14] = assay: Anti-bacterial activity against Staphylococcus aureus ATCC 12600 assessed as inhibition of bacterial growth; assay type: functional; conditions: Staphylococcus aureus, ATCC 12600; read-out: MIC
Escherichia coli [15] = assay: Anti-bacterial activity against Escherichia coli ATCC 25922 assessed as growth inhibition by measuring optical density measured at 1/4 times of MIC of norfloxacin by Checkerboard assay (reference value: 0.129); assay type: functional
Acinetobacter baumannii [16] = assay: Anti-bacterial activity against Acinetobacter baumannii assessed as growth inhibition by measuring optical density measured at 1/8 time of MIC (reference value: 0.156); assay type: functional
Escherichia coli [17] = assay: Anti-bacterial activity against Escherichia coli JM109 assessed as inhibition of bacterial growth; assay type: functional
Acinetobacter baumannii [18] = assay: Anti-bacterial activity against Acinetobacter baumannii assessed as growth inhibition by measuring optical density measured at 1/4 time of MIC (reference value: 0.156); assay type: functional
Escherichia coli [19] = assay: Anti-bacterial activity against Escherichia coli ATCC 25922 assessed as growth inhibition by measuring optical density measured at 1 times of MIC of norfloxacin by Checkerboard assay (reference value: 0.129); assay type: functional
Escherichia coli [20] = assay: Anti-bacterial activity against Escherichia coli ATCC 25922 assessed as inhibition of bacterial growth measured after 6-7 th passages at sub-MIC concentration by multiple resistance study; assay type: functional, organism-based
Acinetobacter baumannii [21] = assay: Anti-bacterial activity against Acinetobacter baumannii R674 assessed as inhibition of bacterial growth; assay type: functional
Pseudomonas aeruginosa [22] = assay: Anti-bacterial activity against Pseudomonas aeruginosa ATCC 27853 assessed as inhibition of bacterial growth; assay type: functional; conditions: Pseudomonas aeruginosa, ATCC 27853; read-out: MIC
Escherichia coli [23] = assay: Anti-bacterial activity against Escherichia coli ATCC 25922 assessed as growth inhibition by measuring optical density measured at 1/8 times of MIC of norfloxacin by Checkerboard assay (reference value: 0.129); assay type: functional
Staphylococcus aureus [24] = assay: Anti-bacterial activity against Staphylococcus aureus ATCC 25923 assessed as inhibition of bacterial growth; assay type: functional; conditions: Staphylococcus aureus, ATCC 25923; read-out: MIC
Enterococcus faecalis = assay: Anti-bacterial activity against Enterococcus faecalis V583 assessed as inhibition of bacterial growth; assay type: functional
Acinetobacter baumannii [25] = assay: Anti-bacterial activity against Acinetobacter baumannii assessed as inhibition of bacterial growth measured after 6-7 th passages at sub-MIC concentration by multiple resistance study; assay type: functional, organism-based
Staphylococcus aureus [26] = assay: Anti-bacterial activity against Staphylococcus aureus ATCC 1708 assessed as inhibition of bacterial growth; assay type: functional; conditions: Staphylococcus aureus, ATCC 1708; read-out: MIC
Acinetobacter baumannii [27] = assay: Anti-bacterial activity against Acinetobacter baumannii assessed as growth inhibition by measuring optical density measured at 1 time of MIC (reference value: 0.156); assay type: functional
Staphylococcus aureus [28] = assay: Anti-bacterial activity against Staphylococcus aureus CMCC (B) 26003 assessed as inhibition of bacterial growth; assay type: functional
Staphylococcus aureus [29] = assay: Anti-bacterial activity against Staphylococcus aureus ATCC 6538 assessed as inhibition of bacterial growth; assay type: functional
Pseudomonas aeruginosa [30] = assay: Anti-bacterial activity against Pseudomonas aeruginosa ATCC 15442 assessed as inhibition of bacterial growth; assay type: functional; conditions: Pseudomonas aeruginosa, ATCC 15442; read-out: MIC
Pseudomonas aeruginosa [31] = assay: Anti-bacterial activity against Pseudomonas aeruginosa ATCC 9027 assessed as inhibition of bacterial growth; assay type: functional
Acinetobacter baumannii [32] = assay: as §1, with “Acinetobacter baumannii” for “Escherichia coli ATCC 25922”; assay type: functional
Escherichia coli [33] = assay: Anti-bacterial activity against Escherichia coli ATCC 25922 assessed as inhibition of bacterial growth; assay type: functional
Candida albicans [34] = assay: Anti-fungal activity against Candida albicans assessed as inhibition of fungal growth; assay type: functional; conditions: Candida albicans; read-out: MIC
Candida albicans [35] = assay: Anti-fungal activity against Candida albicans 90023 assessed as inhibition of fungal growth; assay type: functional
Candida tropicalis = assay: Anti-fungal activity against Candida tropicalis assessed as inhibition of fungal growth; assay type: functional; conditions: Candida tropicalis; read-out: MIC
Candida parapsilosis = assay: Anti-fungal activity against Candida parapsilosis assessed as inhibition of fungal growth; assay type: functional; conditions: Lodderomyces parapsilosis; read-out: MIC

Row | Compound | MIC (Staphylococcus aureus [1]) [µM] | MIC (Klebsiella pneumoniae) [µM] | MIC (Pseudomonas aeruginosa [2]) [µM] | MIC (Staphylococcus aureus [5]) [µM] | MIC (Staphylococcus aureus [6]) [µM] | MIC (Staphylococcus aureus [8]) [µM] | MIC (Pseudomonas aeruginosa [9]) [µM] | MIC (Staphylococcus aureus [14]) [µM] | MIC (Escherichia coli [17]) [µM] | MIC (Acinetobacter baumannii [21]) [µM] | MIC (Pseudomonas aeruginosa [22]) [µM] | MIC (Staphylococcus aureus [24]) [µM] | MIC (Enterococcus faecalis) [µM] | MIC (Staphylococcus aureus [26]) [µM] | MIC (Staphylococcus aureus [28]) [µM] | MIC (Staphylococcus aureus [29]) [µM] | MIC (Pseudomonas aeruginosa [30]) [µM] | MIC (Pseudomonas aeruginosa [31]) [µM] | MIC (Escherichia coli [33]) [µM] | MIC (Candida albicans [34]) [µM] | other results
1 | CCn1cc(C(=O)O)c(=O)c2cc(F)c(N3CCNCC3)cc21 [NORFLOXACIN] | 3 (≈ 0.958 µg/mL) | 3 (≈ 0.958 µg/mL) | 6 (≈ 1.92 µg/mL) | 6 (≈ 1.92 µg/mL) | 6 (≈ 1.92 µg/mL) | 6 (≈ 1.92 µg/mL) | 6 (≈ 1.92 µg/mL) | 6 (≈ 1.92 µg/mL) | 25 (≈ 7.98 µg/mL) | 13 (≈ 4.15 µg/mL) | 25 (≈ 7.98 µg/mL) | 6 (≈ 1.92 µg/mL) | 6 (≈ 1.92 µg/mL) | 3 (≈ 0.958 µg/mL) | 6 (≈ 1.92 µg/mL) | 6 (≈ 1.92 µg/mL) | 6 (≈ 1.92 µg/mL) | 6 (≈ 1.92 µg/mL) | 13 (≈ 4.15 µg/mL) | – | Ratio (Escherichia coli [3]): 16; FIC (Escherichia coli [4]): 0.25; OD (Escherichia coli [7]): 0.128; OD (Acinetobacter baumannii [10]): 0.136; OD (Acinetobacter baumannii [11]): 0.141; Ratio (Acinetobacter baumannii [12]): 32; OD (Escherichia coli [13]): 0.128; OD (Escherichia coli [15]): 0.128; OD (Acinetobacter baumannii [16]): 0.155; OD (Acinetobacter baumannii [18]): 0.142; OD (Escherichia coli [19]): 0.129; Activity (Escherichia coli [20]): inactive; OD (Escherichia coli [23]): 0.125; Activity (Acinetobacter baumannii [25]): inactive; OD (Acinetobacter baumannii [27]): 0.138; FIC (Acinetobacter baumannii [32]): 0.25
2 | CCOC(=O)C1=C(CN2CCN(C(=O)/C(=N/OC)c3csc(N)n3)CC2)NC(=O)NC1c1ccc(F)cc1 (configuration not stated) | 59 (≈ 32.2 µg/mL) | 117 (≈ 63.8 µg/mL) | 117 (≈ 63.8 µg/mL) | 117 (≈ 63.8 µg/mL) | 59 (≈ 32.2 µg/mL) | 59 (≈ 32.2 µg/mL) | 117 (≈ 63.8 µg/mL) | 59 (≈ 32.2 µg/mL) | 117 (≈ 63.8 µg/mL) | 59 (≈ 32.2 µg/mL) | 117 (≈ 63.8 µg/mL) | 59 (≈ 32.2 µg/mL) | 29 (≈ 15.8 µg/mL) | 117 (≈ 63.8 µg/mL) | 235 (≈ 128 µg/mL) | 117 (≈ 63.8 µg/mL) | 59 (≈ 32.2 µg/mL) | 117 (≈ 63.8 µg/mL) | 59 (≈ 32.2 µg/mL) | 447 (≈ 244 µg/mL) | MIC (Candida albicans [35]): 6 µM (≈ 3.27 µg/mL); MIC (Candida tropicalis): 447 µM (≈ 244 µg/mL); MIC (Candida parapsilosis): 447 µM (≈ 244 µg/mL)
3 | CCOC(=O)C1=C(CN2CCN(C(=O)/C(=N/OC)c3csc(N)n3)CC2)NC(=O)NC1c1ccc(OC)cc1 (configuration not stated) | 115 (≈ 64.1 µg/mL) | 230 (≈ 128 µg/mL) | 230 (≈ 128 µg/mL) | 230 (≈ 128 µg/mL) | 115 (≈ 64.1 µg/mL) | 58 (≈ 32.3 µg/mL) | 230 (≈ 128 µg/mL) | 230 (≈ 128 µg/mL) | 115 (≈ 64.1 µg/mL) | 115 (≈ 64.1 µg/mL) | 230 (≈ 128 µg/mL) | 230 (≈ 128 µg/mL) | 58 (≈ 32.3 µg/mL) | 115 (≈ 64.1 µg/mL) | 115 (≈ 64.1 µg/mL) | 115 (≈ 64.1 µg/mL) | 230 (≈ 128 µg/mL) | 230 (≈ 128 µg/mL) | 230 (≈ 128 µg/mL) | 470 (≈ 262 µg/mL) | MIC (Candida albicans [35]): 7 µM (≈ 3.9 µg/mL); MIC (Candida tropicalis): 470 µM (≈ 262 µg/mL); MIC (Candida parapsilosis): 470 µM (≈ 262 µg/mL)
4 | CCOC(=O)C1=C(CN2CCN(C(=O)/C(=N/OC)c3csc(N)n3)CC2)NC(=O)NC1c1ccc(Cl)cc1Cl (configuration not stated) | 27 (≈ 16.1 µg/mL) | 108 (≈ 64.4 µg/mL) | 54 (≈ 32.2 µg/mL) | 108 (≈ 64.4 µg/mL) | 108 (≈ 64.4 µg/mL) | 54 (≈ 32.2 µg/mL) | 54 (≈ 32.2 µg/mL) | 54 (≈ 32.2 µg/mL) | 108 (≈ 64.4 µg/mL) | 27 (≈ 16.1 µg/mL) | 54 (≈ 32.2 µg/mL) | 54 (≈ 32.2 µg/mL) | 27 (≈ 16.1 µg/mL) | 54 (≈ 32.2 µg/mL) | 108 (≈ 64.4 µg/mL) | 54 (≈ 32.2 µg/mL) | 54 (≈ 32.2 µg/mL) | 108 (≈ 64.4 µg/mL) | 54 (≈ 32.2 µg/mL) | 449 (≈ 268 µg/mL) | MIC (Candida albicans [35]): 449 µM (≈ 268 µg/mL); MIC (Candida tropicalis): 449 µM (≈ 268 µg/mL); MIC (Candida parapsilosis): 449 µM (≈ 268 µg/mL)
5 | CCOC(=O)C1=C(CN2CCN(C(=O)/C(=N/OC)c3csc(N)n3)CC2)NC(=O)NC1c1ccc(F)cc1F (configuration not stated) | 28 (≈ 15.8 µg/mL) | 114 (≈ 64.2 µg/mL) | 114 (≈ 64.2 µg/mL) | 114 (≈ 64.2 µg/mL) | 57 (≈ 32.1 µg/mL) | 57 (≈ 32.1 µg/mL) | 57 (≈ 32.1 µg/mL) | 57 (≈ 32.1 µg/mL) | 114 (≈ 64.2 µg/mL) | 57 (≈ 32.1 µg/mL) | 57 (≈ 32.1 µg/mL) | 28 (≈ 15.8 µg/mL) | 28 (≈ 15.8 µg/mL) | 57 (≈ 32.1 µg/mL) | 114 (≈ 64.2 µg/mL) | 57 (≈ 32.1 µg/mL) | 28 (≈ 15.8 µg/mL) | 114 (≈ 64.2 µg/mL) | 57 (≈ 32.1 µg/mL) | 464 (≈ 262 µg/mL) | MIC (Candida albicans [35]): 15 µM (≈ 8.45 µg/mL); MIC (Candida tropicalis): 464 µM (≈ 262 µg/mL); MIC (Candida parapsilosis): 464 µM (≈ 262 µg/mL)
